According to the supplement of paper PMC10307832:

Assays:
Assay in all cases: relative viability (nuclei count vs DMSO), 5 days (fraction); higher = more cells survive
Carboplatin + Decitabine = compound: C1CC(C1)(C(=O)O)C(=O)O.[NH2-].[NH2-].[Pt+2] [Carboplatin] + Nc1ncn([C@H]2C[C@H](O)[C@@H](CO)O2)c(=O)n1 [Decitabine] (partner 2 µM)
Outline: (§1)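 A single step with final 0.05% Triton X-100, 1% formaldehyde and 1 ug/ml Hoechst fixed the cells and stained nuclei 5 days after treatment. Lung cancer cell lines in 1536-well plates had been treated by pin tool the day after seeding with one drug alone or a fixed anchor-drug dose plus five library-drug doses (not always all listed) in √10 steps, and nuclei were counted on 4× images. Relative viability is the ratio of nuclei in treated wells to nuclei in vehicle wells, taken as the median of duplicate plates.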

GSK126 + Foretinib = compound: CC[C@H](C)N1C=C(C2=C(C=C(C=C21)C3=CN=C(C=C3)N4CCNCC4)C(=O)NCC5=C(C=C(NC5=O)C)C)C [GSK126] + COc1cc2c(Oc3ccc(NC(=O)C4(C(=O)Nc5ccc(F)cc5)CC4)cc3F)ccnc2cc1OCCCN1CCOCC1 [Foretinib] (partner 0.25 µM)
Outline: as §1

GSK126 + Bortezomib = compound: CC[C@H](C)N1C=C(C2=C(C=C(C=C21)C3=CN=C(C=C3)N4CCNCC4)C(=O)NCC5=C(C=C(NC5=O)C)C)C [GSK126] + CC(C)C[C@H](NC(=O)[C@H](Cc1ccccc1)NC(=O)c1cnccn1)B(O)O [Bortezomib] (partner 0.002 µM)
Outline: as §1

Cell Line	relative viability (Carboplatin + Decitabine; first compound 0.08 µM)	relative viability (Carboplatin + Decitabine; first compound 0.253 µM)	relative viability (Carboplatin + Decitabine; first compound 0.8 µM)	relative viability (Carboplatin + Decitabine; first compound 2.53 µM)	relative viability (Carboplatin + Decitabine; first compound 8 µM)	relative viability (GSK126 + Foretinib; first compound 0.08 µM)	relative viability (GSK126 + Foretinib; first compound 0.253 µM)	relative viability (GSK126 + Foretinib; first compound 0.8 µM)	relative viability (GSK126 + Foretinib; first compound 2.53 µM)	relative viability (GSK126 + Foretinib; first compound 8 µM)	relative viability (GSK126 + Bortezomib; first compound 0.08 µM)	relative viability (GSK126 + Bortezomib; first compound 0.253 µM)	relative viability (GSK126 + Bortezomib; first compound 0.8 µM)	relative viability (GSK126 + Bortezomib; first compound 2.53 µM)	relative viability (GSK126 + Bortezomib; first compound 8 µM)
SK-MES-1	0.419	0.415	0.345	0.341	0.341	1.01	0.913	0.88	0.834	0.976	–	–	–	–	–
NCI-H1648	0.542	0.475	0.542	0.435	0.46	–	–	–	–	–	–	–	–	–	–
PC-14	0.179	0.209	0.165	0.119	0.0887	0.914	0.886	0.924	0.908	0.918	0.774	0.943	0.895	0.781	0.782
NCI-H1651	0.773	0.633	0.589	0.574	0.509	0.736	0.848	0.868	0.702	0.977	1.03	0.949	0.981	1.01	0.996
HOP-62	0.234	0.223	0.243	0.195	0.214	1.11	1.08	1.01	1.21	1.04	0.645	0.816	0.862	0.837	0.724
HCC-44	0.968	0.915	0.949	0.923	0.863	–	–	–	–	–	0.857	0.972	0.876	0.77	0.871
HCC-15	0.657	0.627	0.588	0.587	0.452	1.08	1.04	1.08	1.04	0.887	1.04	1.1	0.974	0.957	0.975
NCI-H460	0.461	0.476	0.481	0.298	0.149	1.04	0.998	0.977	0.997	1.06	1.34	1.1	1.06	1.09	1.18
NCI-H1299	–	–	–	–	–	1.14	1.13	1.05	1.07	1.11	1.03	1.01	0.999	0.969	1.06
SK-LU-1	0.719	0.677	0.625	0.586	0.46	0.899	0.788	0.795	0.973	0.964	1.19	0.95	1.19	1.38	1.05
COR-L 105	0.648	0.611	0.687	0.515	0.398	1.23	1.08	0.989	0.871	0.99	1.03	0.718	0.773	0.786	0.748
COR-L23	0.402	0.514	0.412	0.361	0.21	1.06	0.931	0.921	0.932	1.01	1.08	0.979	0.942	1.01	0.992
NCI-H3122	0.49	0.433	0.437	0.397	0.436	0.983	1.03	0.985	1.01	0.994	1.01	1.04	0.994	1.01	1.07
NCI-H23	0.377	0.266	0.298	0.291	0.276	1	0.313	0.901	1.03	0.98	1.13	0.96	0.922	1.02	0.95
PC-3 [JPC-3]	0.835	0.75	0.795	0.734	0.7	1.02	1.02	1.02	1.01	0.997	0.823	1.01	0.786	0.817	0.856
NCI-H2228	–	–	–	–	–	0.871	0.828	0.789	0.832	0.628	1.01	0.787	0.763	1.08	1.05
A549	0.259	0.338	0.279	0.231	0.18	1.01	0.974	0.922	0.954	0.904	–	–	–	–	–
NCI-H358	0.213	0.222	0.201	0.201	0.186	0.742	0.629	0.66	0.859	0.786	–	–	–	–	–
NCI-H2342	0.675	0.729	0.661	0.721	0.594	1.16	1.05	0.998	1.05	1.16	–	–	–	–	–
NCI-H2087	0.242	0.28	0.307	0.227	0.237	1.2	0.999	1.05	1.28	1.13	1.02	0.668	0.94	0.941	0.907
NCI-H596	1.16	1.13	0.986	0.958	0.629	0.854	0.497	1.08	0.975	0.809	1.09	0.982	–	1.14	0.731
ChaGo-K-1	0.563	0.527	0.464	0.413	0.388	1.07	1.06	0.878	1	0.835	0.969	1.02	0.979	1.19	1.06
SW 1573	0.493	0.524	0.587	0.4	0.26	1.09	1.04	0.929	1.05	0.949	1.06	1.1	0.989	1.01	1.26
LCLC-97TM1	0.299	0.206	0.208	0.218	0.191	1.03	0.942	0.954	1.06	0.994	0.563	0.586	0.671	0.719	0.575
HCC-366	0.322	0.32	0.336	0.251	0.203	1.02	0.974	0.907	0.892	0.935	1.1	1.05	1.03	1.06	1.05
HARA	0.681	0.439	0.549	0.448	0.469	1.14	0.93	0.874	0.877	0.839	1.15	1.14	1.09	1.11	1.05

Cell Line	relative viability (Carboplatin + Decitabine; first compound 0.08 µM)	relative viability (Carboplatin + Decitabine; first compound 0.253 µM)	relative viability (Carboplatin + Decitabine; first compound 0.8 µM)	relative viability (Carboplatin + Decitabine; first compound 2.53 µM)	relative viability (Carboplatin + Decitabine; first compound 8 µM)	relative viability (GSK126 + Foretinib; first compound 0.08 µM)	relative viability (GSK126 + Foretinib; first compound 0.253 µM)	relative viability (GSK126 + Foretinib; first compound 0.8 µM)	relative viability (GSK126 + Foretinib; first compound 2.53 µM)	relative viability (GSK126 + Foretinib; first compound 8 µM)	relative viability (GSK126 + Bortezomib; first compound 0.08 µM)	relative viability (GSK126 + Bortezomib; first compound 0.253 µM)	relative viability (GSK126 + Bortezomib; first compound 0.8 µM)	relative viability (GSK126 + Bortezomib; first compound 2.53 µM)	relative viability (GSK126 + Bortezomib; first compound 8 µM)
NCI-H1915	0.264	0.258	0.249	0.23	0.258	1.22	1.16	1.09	1.08	1.2	1.02	0.964	0.991	0.979	0.998
NCI-H1650	0.426	0.498	0.425	0.365	0.308	1.45	1	0.934	1.12	1.09	0.233	0.25	0.185	0.183	0.19
NCI-H650	0.308	0.329	0.344	0.328	0.246	1.15	1.02	0.954	1.02	1.03	0.812	0.814	0.762	0.804	0.727
NCI-H2126	0.607	0.573	0.544	0.59	0.51	1.19	0.847	1.21	1.28	1.25	1.09	1.19	1.12	1.08	1.1
NCI-H838	0.479	0.492	0.425	0.412	0.386	1.1	1.07	0.929	0.992	0.954	0.935	0.828	0.662	0.613	0.767
NCI-H522	0.646	0.685	0.614	0.655	0.644	–	–	–	–	–	–	–	–	–	–
EPLC-272H	0.402	0.403	0.361	0.366	0.355	0.809	0.789	0.736	0.742	0.754	1.1	0.889	0.99	0.822	0.963
NCI-H1437	0.508	0.556	0.529	0.508	0.464	1.32	1.29	1.14	1.26	1.27	0.528	0.504	0.442	0.45	0.518
NCI-H2405	0.705	0.784	0.809	0.659	0.442	1.03	1	1.02	1.06	1.02	0.988	0.974	0.985	0.982	0.975
NCI-H1666	0.715	0.824	0.774	0.752	0.653	0.997	0.925	0.918	0.921	0.917	0.826	0.962	0.814	0.808	1.01
NCI-H1993	0.64	0.661	0.559	0.559	0.473	0.704	0.812	0.726	0.845	0.859	1.23	1.06	1.11	1.04	0.995
Calu-6	–	–	–	–	–	1.02	0.934	0.896	0.829	0.978	1.18	0.949	1.1	1.2	1.04
LK-2	0.287	0.33	0.279	0.289	0.335	1.44	1.33	1.28	1.15	1.19	–	–	–	–	–
IA-LM	–	–	–	–	–	1.26	1.03	0.994	1.03	1.08	0.98	0.789	0.847	0.796	0.788
NCI-H1944	0.456	0.456	0.437	0.417	0.363	0.918	0.837	0.854	0.872	0.956	–	–	–	–	–
CAL-12T	–	–	–	–	–	1.13	1.12	1.09	1	1.25	0.942	1.01	0.929	1.08	1.04
EBC-1	–	–	–	–	–	0.117	0.113	0.0893	0.102	0.0935	0.61	0.542	0.529	0.563	0.411
NCI-H2170	0.507	0.476	0.465	0.428	0.343	0.587	1.03	0.979	0.969	0.973	–	–	–	–	–
SW 900	0.431	0.361	0.42	0.395	0.377	0.753	0.817	0.922	0.848	0.909	–	–	–	–	–
NCI-H1792	0.475	0.562	0.497	0.372	0.291	–	–	–	–	–	0.973	1.02	0.991	0.91	0.948
NCI-H1703	–	–	–	–	–	0.354	0.357	0.311	0.373	0.381	0.444	0.339	0.191	0.407	0.209
NCI-H1395	0.797	0.747	0.63	0.584	0.516	1.17	0.878	1.04	1.07	0.785	–	–	–	–	–
NCI-H1563	–	–	–	–	–	1.01	0.9	0.934	0.893	0.95	0.948	0.924	0.937	0.887	0.834
NCI-H1793	0.464	0.538	0.503	0.452	0.357	0.799	0.519	0.581	0.776	0.885	–	–	–	–	–
NCI-H1623	–	–	–	–	–	0.941	0.888	0.916	0.883	0.799	–	–	–	–	–
